Results reported in patent US20120115724A1, “METHOD OF CONTROLLING UNDESIRED VEGETATION” (SYNGENTA CROP PROTECTION LLC, priority 2009, published 2012).

Columns and labels:
Assay type in all cases: in vivo
[1] = system: EPHHL Euphorbia heterophylla; assay: Post-emergence crop and weed test (Example 15); details: 360 h, after 15 days, read-out: Percentage damage EPHHL
Description: (§1) Seeds of crop and representative weed species were sown in standard soil in pots. After cultivation for 14 days under controlled conditions in a glasshouse (at 22/16° C., day/night; 16 hours light; 65% humidity), the plants were sprayed. The spray solution was prepared by dissolving the technical active ingredient in acetone containing 10.56 wt % Emulsogen EL, 42.22 wt % N-methylpyrrolidone and 2.22 wt % DPG-monoethyl ether to give a 5% stock solution. This was then diluted with water containing 0.2% (v/v) of the adjuvant X-77 to give the desired treatment concentration.
(§2) The test plants were then grown on under controlled conditions in a glasshouse (at 22/16° C., day/night; 16 hours light; 65% humidity) and watered twice daily. After 15 days the test was evaluated (100 =total damage to plant; 0 =no damage to plant).

[2] = system: AMARE Amaranthus retroflexus; assay: Post-emergence crop and weed test (Example 15); details: 360 h, after 15 days, read-out: Percentage damage AMARE
Description: as §1, §2

[3] = system: SINAR Sinapis arvensis; assay: Post-emergence crop and weed test (Example 15); details: Mutarda arvensis, 360 h, after 15 days, read-out: Percentage damage SINAR
Description: as §1, §2

[4] = system: CHEAL Chenopodium album; assay: Post-emergence crop and weed test (Example 15); details: 360 h, after 15 days, read-out: Percentage damage CHEAL
Description: as §1, §2

[5] = system: GLXMA Soybean; assay: Post-emergence crop and weed test (Example 15); details: Glycine max, 360 h, after 15 days, read-out: Percentage damage GLXMA
Description: as §1, §2

[6] = system: ABUTH Abutilon theophrasti; assay: Post-emergence crop and weed test (Example 15); details: 360 h, after 15 days, read-out: Percentage damage ABUTH
Description: as §1, §2

[7] = system: XANST Xanthium strumarium; assay: Post-emergence crop and weed test (Example 15); details: 360 h, after 15 days, read-out: Percentage damage XANST
Description: as §1, §2

[8] = system: POLCO Polygonum convolvulus; assay: Post-emergence crop and weed test (Example 15); details: Fallopia convolvulus, 360 h, after 15 days, read-out: Percentage damage POLCO
Description: as §1, §2

[9] = system: SIDSP Sida spinosa; assay: Post-emergence crop and weed test (Example 15); details: 360 h, after 15 days, read-out: Percentage damage SIDSP
Description: as §1, §2

[10] = system: VERPE Veronica persica; assay: Post-emergence crop and weed test (Example 15); details: 360 h, after 15 days, read-out: Percentage damage VERPE
Description: as §1, §2

[11] = system: IPOHE Ipomoea hederacea; assay: Post-emergence crop and weed test (Example 15); details: 360 h, after 15 days, read-out: Percentage damage IPOHE
Description: as §1, §2

[12] = system: KCHSC Kochia scoparia; assay: Post-emergence crop and weed test (Example 15); details: Bassia scoparia, 360 h, after 15 days, read-out: Percentage damage KCHSC
Description: as §1, §2

[13] = system: Ipomea hederaceae (IPOHE); assay: Pre-emergence biological efficacy (Example 13); details: Ipomoea hederacea, 312 h; pre-emergence, 1,000 g/ha, after 13 days; read-out: Percentage damage IPOHE
Description: (§3) Seeds of Alopecurus myosuroides (ALOMY), Setaria faberi (SETFA), Echinochloa crus-galli (ECHCG), Solanum nigrum (SOLNI), Amaranthus retroflexus (AMARE) and Ipomea hederaceae (IPOHE) were sown in standard soil in pots. After cultivation for one day under controlled conditions in a glasshouse (at 24/16° C., day/night; 14 hours light; 65% humidity), the plants were sprayed with an aqueous spray solution derived from the formulation of the technical active ingredient in acetone/water (50:50) solution containing 0.5% Tween 20 (polyoxyethylene sorbitan monolaurate, CAS RN 9005-64-5) to give a final dose of 250 or 1000g/ha of test compound. The test plants were then grown under controlled conditions in the glasshouse (at 24/16° C., day/night; 14 hours light; 65% humidity) and watered twice daily. After 13 days the test was evaluated (100 =total damage to plant; 0 =no damage to plant).

[14] = system: Alopecurus myosuroides (ALOMY); assay: Pre-emergence biological efficacy (Example 13); details: Alopecurus myosuroides, 312 h; pre-emergence, 1,000 g/ha, after 13 days; read-out: Percentage damage ALOMY
Description: as §3

[15] = system: Echinochloa crus-galli (ECHCG); assay: Pre-emergence biological efficacy (Example 13); details: Echinochloa crus-galli, 312 h; pre-emergence, 1,000 g/ha, after 13 days; read-out: Percentage damage ECHCG
Description: as §3

[16] = system: Setaria faberi (SETFA); assay: Pre-emergence biological efficacy (Example 13); details: Setaria faberi, 312 h; pre-emergence, 1,000 g/ha, after 13 days; read-out: Percentage damage SETFA
Description: as §3

[17] = system: Solanum nigrum (SOLNI); assay: Pre-emergence biological efficacy (Example 13); details: Solanum nigrum, 312 h; pre-emergence, 1,000 g/ha, after 13 days; read-out: Percentage damage SOLNI
Description: as §3

[18] = system: Amaranthus retroflexus (AMARE); assay: Pre-emergence biological efficacy (Example 13); details: Amaranthus retroflexus, 312 h; pre-emergence, 1,000 g/ha, after 13 days; read-out: Percentage damage AMARE
Description: as §3

[19] = system: Ipomea hederaceae (IPOHE); assay: Post-emergence biological efficacy (Example 14); details: Ipomoea hederacea, 312 h; post-emergence, 1,000 g/ha, after 13 days; read-out: Percentage damage IPOHE
Description: as §3, with “for 8 days” for “for one day”, “or 1000 g/ha” for “or 1000g/ha”, “grown on” for “grown”, “in a” for “in the”, “evaluated (100=total” for “evaluated (100 =total”, “plant; 0=no” for “plant; 0 =no”

[20] = system: Alopecurus myosuroides (ALOMY); assay: Post-emergence biological efficacy (Example 14); details: Alopecurus myosuroides, 312 h; post-emergence, 1,000 g/ha, after 13 days; read-out: Percentage damage ALOMY
Description: as §3, with “for 8 days” for “for one day”, “or 1000 g/ha” for “or 1000g/ha”, “grown on” for “grown”, “in a” for “in the”, “evaluated (100=total” for “evaluated (100 =total”, “plant; 0=no” for “plant; 0 =no”

[21] = system: Echinochloa crus-galli (ECHCG); assay: Post-emergence biological efficacy (Example 14); details: Echinochloa crus-galli, 312 h; post-emergence, 1,000 g/ha, after 13 days; read-out: Percentage damage ECHCG
Description: as §3, with “for 8 days” for “for one day”, “or 1000 g/ha” for “or 1000g/ha”, “grown on” for “grown”, “in a” for “in the”, “evaluated (100=total” for “evaluated (100 =total”, “plant; 0=no” for “plant; 0 =no”

[22] = system: Setaria faberi (SETFA); assay: Post-emergence biological efficacy (Example 14); details: Setaria faberi, 312 h; post-emergence, 1,000 g/ha, after 13 days; read-out: Percentage damage SETFA
Description: as §3, with “for 8 days” for “for one day”, “or 1000 g/ha” for “or 1000g/ha”, “grown on” for “grown”, “in a” for “in the”, “evaluated (100=total” for “evaluated (100 =total”, “plant; 0=no” for “plant; 0 =no”

[23] = system: Solanum nigrum (SOLNI); assay: Post-emergence biological efficacy (Example 14); details: Solanum nigrum, 312 h; post-emergence, 1,000 g/ha, after 13 days; read-out: Percentage damage SOLNI
Description: as §3, with “for 8 days” for “for one day”, “or 1000 g/ha” for “or 1000g/ha”, “grown on” for “grown”, “in a” for “in the”, “evaluated (100=total” for “evaluated (100 =total”, “plant; 0=no” for “plant; 0 =no”

[24] = system: Amaranthus retroflexus (AMARE); assay: Post-emergence biological efficacy (Example 14); details: Amaranthus retroflexus, 312 h; post-emergence, 1,000 g/ha, after 13 days; read-out: Percentage damage AMARE
Description: as §3, with “for 8 days” for “for one day”, “or 1000 g/ha” for “or 1000g/ha”, “grown on” for “grown”, “in a” for “in the”, “evaluated (100=total” for “evaluated (100 =total”, “plant; 0=no” for “plant; 0 =no”

**Q.** Which results are given for `C=Cc1c(N)nc(-c2ccc(Cl)c(F)c2)nc1C(=O)OC` [Compound 9, 4-Amino-2-(4-chloro-3-fluorophenyl)-5-ethenyl-6-methoxycarbonyl-pyrimidine]?
**A.** pest or weed control at 125 g/ha ([1]; 125 g/ha): 80%; pest or weed control at 125 g/ha ([2]; 125 g/ha): 100%; pest or weed control at 125 g/ha ([3]; 125 g/ha): 80%; pest or weed control at 125 g/ha ([4]; 125 g/ha): 90%; plant injury at 125 g/ha ([5]; 125 g/ha): 0%; pest or weed control at 125 g/ha ([6]; 125 g/ha): 80%; pest or weed control at 125 g/ha ([7]; 125 g/ha): 100%; pest or weed control at 125 g/ha ([8]; 125 g/ha): 70%; pest or weed control at 125 g/ha ([9]; 125 g/ha): 80%; pest or weed control at 125 g/ha ([10]; 125 g/ha): 80%; pest or weed control at 125 g/ha ([11]; 125 g/ha): 80%; pest or weed control at 125 g/ha ([12]; 125 g/ha): 90%

**Q.** How did the pest or weed control at 15 g/ha ([1]; 15 g/ha) turn out when `C=Cc1c(N)nc(-c2ccc(Cl)cc2F)nc1C(=O)OC` [Compound 10, 4-Amino-2-(4-chloro-2-fluorophenyl)-5-ethenyl-6-methoxycarbonyl-pyrimidine] was run?
**A.** 50%

**Q.** What about the pest or weed control at 15 g/ha ([2]; 15 g/ha) of the same compound?
**A.** 50%

**Q.** What about the pest or weed control at 15 g/ha ([3]; 15 g/ha) of the same compound?
**A.** 80%

**Q.** What about the pest or weed control at 15 g/ha ([4]; 15 g/ha) of the same compound?
**A.** 80%

**Q.** What about the plant injury at 15 g/ha ([5]; 15 g/ha) of the same compound?
**A.** 0%

**Q.** And the pest or weed control at 15 g/ha ([6]; 15 g/ha)?
**A.** 90%

**Q.** What about the pest or weed control at 15 g/ha ([7]; 15 g/ha) of the same compound?
**A.** 70%

**Q.** And the pest or weed control at 15 g/ha ([8]; 15 g/ha)?
**A.** 70%

**Q.** What about the pest or weed control at 15 g/ha ([9]; 15 g/ha) of the same compound?
**A.** 50%

**Q.** What about the pest or weed control at 15 g/ha ([10]; 15 g/ha) of the same compound?
**A.** 10%

**Q.** What about the pest or weed control at 15 g/ha ([11]; 15 g/ha) of the same compound?
**A.** 70%

**Q.** What about the pest or weed control at 15 g/ha ([12]; 15 g/ha) of the same compound?
**A.** 30%

**Q.** What does the source list for `C=Cc1c(NCc2ccco2)nc(-c2ccc(Cl)c(OC)c2F)nc1C(=O)OCCOCC` [Compound 48, 2-(4-Chloro-2-fluoro-3-methoxyphenyl)-5-ethenyl-6-(2-ethoxy-ethoxy)carbonyl-4-(furan-2-ylmethylamino)-pyrimidine]?
**A.** pest or weed control at 1000 g/ha [13]: 0%; pest or weed control at 1000 g/ha [14]: 0%; pest or weed control at 1000 g/ha [15]: 0%; pest or weed control at 1000 g/ha [16]: 0%; pest or weed control at 1000 g/ha [17]: 0%; pest or weed control at 1000 g/ha [18]: 0%; pest or weed control at 1000 g/ha [19]: 60%; pest or weed control at 1000 g/ha [20]: 0%; pest or weed control at 1000 g/ha [21]: 0%; pest or weed control at 1000 g/ha [22]: 0%; pest or weed control at 1000 g/ha [23]: 50%; pest or weed control at 1000 g/ha [24]: 40%

**Q.** Which results are given for `C=Cc1c(N)nc(C2CC2)nc1C(=O)OC` [Ref. Ex. C, 4-Amino-2-cyclopropyl-5-ethenyl-6-methoxycarbonyl-pyrimidine, reference compound]?
**A.** pest or weed control at 8 g/ha ([1]; 8 g/ha): 30%; pest or weed control at 8 g/ha ([2]; 8 g/ha): 10%; pest or weed control at 8 g/ha ([3]; 8 g/ha): 0%; pest or weed control at 8 g/ha ([4]; 8 g/ha): 60%; plant injury at 8 g/ha ([5]; 8 g/ha): 70%; pest or weed control at 8 g/ha ([6]; 8 g/ha): 30%; pest or weed control at 8 g/ha ([7]; 8 g/ha): 0%; pest or weed control at 8 g/ha ([8]; 8 g/ha): 0%; pest or weed control at 8 g/ha ([9]; 8 g/ha): 40%; pest or weed control at 8 g/ha ([10]; 8 g/ha): 50%; pest or weed control at 8 g/ha ([11]; 8 g/ha): 70%; pest or weed control at 8 g/ha ([12]; 8 g/ha): 0%
